Reference: article PMC9000336, “Development of Bicyclo[3.1.0]hexane-Based A3 Receptor Ligands: Closing the Gaps in the Structure–Affinity Relationships” (Molecules, 2022)
Read-outs that look alike come from different tables or passages of the source.

Legend:
[1] = molecular target: T1, human adenosine A1 receptor (Homo sapiens, UniProt P30542); assay: Radioligand displacement assay, human adenosine A1 receptor ([3H]DPCPX, CHOhA1R membranes); assay type: binding; conditions: n = 3; for inhibition at 10 µM: test compound 10 µM; for Ki: footnote a: tested at 1 µM, read-out: A1 Ki (bound, footnote a); for A1 displacement at 1 µM: footnote a: test compound 1 µM
T1 construct: expressed in transfected cells; host or cells: CHO cells (CHOhA1R), gift of Prof; S. J. Hill; membrane preparation
T1 sequence (P30542 1-326): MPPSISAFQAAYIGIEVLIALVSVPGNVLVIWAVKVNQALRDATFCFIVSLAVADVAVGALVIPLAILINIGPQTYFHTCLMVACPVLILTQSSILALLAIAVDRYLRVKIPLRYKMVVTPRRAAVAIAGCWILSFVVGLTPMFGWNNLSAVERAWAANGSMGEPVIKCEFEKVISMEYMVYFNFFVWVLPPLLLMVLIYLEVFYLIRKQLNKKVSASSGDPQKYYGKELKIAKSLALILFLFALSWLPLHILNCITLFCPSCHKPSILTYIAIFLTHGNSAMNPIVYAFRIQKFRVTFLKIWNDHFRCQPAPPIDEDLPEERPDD
Description: Chinese hamster ovary (CHO) cells stably expressing the human adenosine A1 receptor (CHOhA1R) were kindly provided by Prof. S. J. Hill and CHO cells stably expressing the human adenosine A3 receptor (CHOhA3R) were a gift from Dr. K.-N. Klotz (University of Würzburg, Germany). Chinese hamster ovary cells stably expressing the human A1-receptor (CHOhA1R) or the human A3-receptor (CHOhA3R) were grown in Dulbecco’s Modified Eagle’s Medium (DMEM) and Ham’s F12 medium (1:1) supplemented with 10% (v/v) newborn calf serum, 50 µg/mL streptomycin, 50 IU/mL penicillin, and 200 µg/mL G418 at 37 °C and 5% CO2. […] All cells were grown to 80–90% confluency and detached from plates by scraping them into 5 mL phosphate-buffered saline. Detached cells were collected and centrifuged at 200 g for 5 min. Pellets derived from 100 15 cm Ø plates were pooled and resuspended in 70 mL of ice-cold 50 mM tris(hydroxymethyl)aminomethane (Tris)-HCl buffer, pH 7.4. A Heidolph Diax 900 homogenizer was used to homogenize the cell suspension. Membranes and the cytosolic fraction were separated by centrifugation at 100,000 g in a Beckman Optima LE-80 K ultracentrifuge (Beckman Coulter, Fullerton, CA, USA) at 4 °C for 20 min. The pellet was resuspended in 35 mL of the Tris-HCl buffer, and the homogenization and centrifugation steps were repeated. Tris-HCl buffer (25 mL) was used to resuspend the pellet, and adenosine deaminase (ADA) was added (0.8 U/mL) to break down endogenous adenosine. Membranes were stored in 250 µL and 500 µL aliquots at −80 °C. Total protein concentrations were measured using the bicinchoninic acid (BCA) method.
A1 Receptor: Membrane aliquots containing 5 µg (CHOhA1R) protein were incubated in a total volume of 100 µL assay buffer (50 mM Tris-HCl, pH 7.4) at 25 °C for 1 h. […] Nonspecific binding was determined in the presence of 100 µM N^6-cyclopentyladenosine (CPA). Incubations were terminated by rapid vacuum filtration to separate the bound and free radioligand through prewetted 96-well GF/B filter plates using a PerkinElmer Filtermate-harvester (Perkin Elmer, Groningen, the Netherlands). Filters were subsequently washed 12 times with ice-cold 50 mM Tris-HCl, pH 7.4.
(§1) The plates of all four adenosine receptor assays were dried at 55 °C after which MicroscintTM-20-cocktail was added (Perkin Elmer, Groningen, The Netherlands).
(§2) All experimental data were analyzed using the non-linear regression curve fitting program GraphPad Prism 7.0 (GraphPad Software Inc., San Diego, CA, USA). IC50 values obtained from competition displacement binding data were converted into Ki values using the Cheng–Prusoff equation.

hA2B receptor = molecular target: T2, hA2B receptor (Homo sapiens, UniProt P29275); assay: Radioligand displacement assay, human adenosine A2B receptor ([3H]PSB-603, CHO-spap-hA2BR membranes); assay type: binding; conditions: n = 3; for A2B displacement at 1 µM: footnote a: test compound 1 µM
T2 construct: expressed in transfected cells; host or cells: CHO-spap cells (CHO-spap-hA2BR), from S. J. Dowell (GlaxoSmithKline); membrane preparation
T2 sequence (P29275 1-332): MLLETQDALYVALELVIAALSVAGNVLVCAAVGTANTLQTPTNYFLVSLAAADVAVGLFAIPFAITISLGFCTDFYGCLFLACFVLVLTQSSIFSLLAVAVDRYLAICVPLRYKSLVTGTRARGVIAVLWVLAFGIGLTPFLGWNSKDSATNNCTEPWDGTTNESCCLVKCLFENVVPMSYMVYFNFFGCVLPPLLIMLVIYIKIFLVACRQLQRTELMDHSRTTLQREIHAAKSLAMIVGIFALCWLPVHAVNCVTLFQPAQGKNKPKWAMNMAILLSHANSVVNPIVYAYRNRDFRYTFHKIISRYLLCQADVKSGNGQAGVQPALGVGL
Description: Human embryonic kidney 293 cells stably expressing the human adenosine A2A receptor (HEK293hA2AR) were kindly provided by Dr. J. Wang (Biogen/IDEC, Cambridge, MA, USA), CHO-spap cells stably expressing the wild-type (WT) hA2B receptor (CHO-spap-hA2BR) were kindly provided by S. J. Dowell (GlaxoSmithKline, Brentfort, UK).
Chinese hamster ovary cells stably expressing the […] and a reporter gene, the secreted placental alkaline phosphatase, (CHO-spap-hA2BR) were grown in DMEM and Ham’s F12 medium (1:1) supplemented with 10% (v/v) newborn calf serum, 100 µg/mL streptomycin, 100 IU/mL penicillin, 1 mg/mL G418, and 0.4 mg/mL hygromycin at 37 °C and 5% CO2.
All cells were grown to 80–90% confluency and detached from plates by scraping them into 5 mL phosphate-buffered saline. Detached cells were collected and centrifuged at 200 g for 5 min. Pellets derived from 100 15 cm Ø plates were pooled and resuspended in 70 mL of ice-cold 50 mM tris(hydroxymethyl)aminomethane (Tris)-HCl buffer, pH 7.4. A Heidolph Diax 900 homogenizer was used to homogenize the cell suspension. Membranes and the cytosolic fraction were separated by centrifugation at 100,000 g in a Beckman Optima LE-80 K ultracentrifuge (Beckman Coulter, Fullerton, CA, USA) at 4 °C for 20 min. The pellet was resuspended in 35 mL of the Tris-HCl buffer, and the homogenization and centrifugation steps were repeated. Tris-HCl buffer (25 mL) was used to resuspend the pellet, and adenosine deaminase (ADA) was added (0.8 U/mL) to break down endogenous adenosine. Membranes were stored in 250 µL and 500 µL aliquots at −80 °C. Total protein concentrations were measured using the bicinchoninic acid (BCA) method.
A2B Receptor: Membrane aliquots containing 30 µg (CHO-spap-hA2BR) total protein were incubated in a total volume of 100 µL assay buffer (0.1% CHAPS in 50 mM TrisHCl, pH 7.4) at 25 °C for 2 h. […] Nonspecific binding was determined in the presence of 10 µM ZM241385. Incubations were terminated by rapid vacuum filtration to separate the bound and free radioligand through prewetted 96-well GF/B filter plates using a PerkinElmer Filtermate-harvester (Perkin Elmer, Groningen, the Netherlands). Filters were subsequently washed 12 times with ice-cold 0.1% BSA in 50 mM Tris-HCl, pH 7.4.
as §1, §2

[2] = [3H]PSB-603, read-out: A2B Ki ± SEM
[3] = footnote a: tested at 1 µM, read-out: A2B Ki (bound, footnote a)

SMILES: COC(=O)CCc1cn(C[C@@]23C[C@@H]2[C@@H](n2cnc4c(N)nc(SC)nc42)[C@H](O)[C@@H]3O)nn1 [Compound 42, Methyl 3-(1-{[(1R,2R,3S,4R,5S)-4-(6-amino-2-methylthio-9H-purin-9-yl)-2,3-dihydroxybicyclo[3.1.0]hex-1-yl]methyl}-1H-1,2,3-triazol-4-yl)propanoate]
- inhibition at 10 µM [1]: 19%
- Ki (hA2B receptor; [2]): > 10 µM

SMILES: CSc1nc(N)c2ncn([C@H]3[C@H](O)[C@H](O)[C@]4(Cn5cc(CN)nn5)C[C@H]34)c2n1 [Compound 43, (1R,2R,3S,4R,5S)-4-(6-Amino-2-methylthio-9H-purin-9-yl)-1-{[4-(aminomethyl)-1H-1,2,3-triazol-1-yl]methyl}bicyclo[3.1.0]hexane-2,3-diol]
- inhibition at 10 µM [1]: 5%
- Ki (hA2B receptor; [2]): > 10 µM

SMILES: CSc1nc(N)c2ncn([C@H]3[C@H](O)[C@H](O)[C@]4(Cn5cc(C(=O)O)nn5)C[C@H]34)c2n1 [Compound 44, 1-{[(1R,2R,3S,4R,5S)-4-(6-Amino-2-methylthio-9H-purin-9-yl)-2,3-dihydroxybicyclo[3.1.0]hex-1-yl]methyl}-1H-1,2,3-triazole-4-carboxylic acid]
- Ki [1]: > 1 µM
- A2B displacement at 1 µM (hA2B receptor): 2% ^a

SMILES: CSc1nc(N)c2ncn([C@H]3[C@H](O)[C@H](O)[C@]4(Cn5cc(CC(=O)O)nn5)C[C@H]34)c2n1 [Compound 45, 2-(1-{[(1R,2R,3S,4R,5S)-4-(6-Amino-2-methylthio-9H-purin-9-yl)-2,3-dihydroxybicyclo[3.1.0]hex-1-yl]methyl}-1H-1,2,3-triazol-4-yl)acetic acid]
- Ki [1]: > 1 µM
- A2B displacement at 1 µM (hA2B receptor): 5% ^a

SMILES: CSc1nc(N)c2ncn([C@H]3[C@H](O)[C@H](O)[C@]4(Cn5cc(CCC(=O)O)nn5)C[C@H]34)c2n1 [Compound 46]
- Ki [1]: > 1 µM
- A2B displacement at 1 µM (hA2B receptor): 1% ^a

SMILES: CCN(CC)CC.CSc1nc(N)c2ncn([C@H]3[C@H](O)[C@H](O)[C@]4(CNc5c(O)c(=O)c5=O)C[C@H]34)c2n1 [Compound 47, Triethylammonium 2-{[(1R,2R,3S,4R,5S)-4-(6-Amino-2-methylthio-9H-purin-9-yl)-2,3-dihydroxybicyclo[3.1.0]hex-1-yl]methyl}amino-3,4-dioxocyclobut-1-en-1-olate]
- A1 displacement at 1 µM [1]: 1% ^a
- Ki (hA2B receptor; [3]): > 1 µM

SMILES: CCN(CC)CC.CSc1nc(N)c2ncn([C@H]3[C@H](O)[C@H](O)[C@]4(CNS(=O)(=O)CC(=O)O)C[C@H]34)c2n1 [Compound 48, Triethylammonium 2-(N-{[(1R,2R,3S,4R,5S)-4-(6-amino-2-methylthio-9H-purin-9-yl)-2,3-dihydroxybicyclo[3.1.0]hex-1-yl]methyl}sulfamoyl)acetate]
- A1 displacement at 1 µM [1]: 3% ^a
- Ki (hA2B receptor; [3]): > 1 µM
